From US20240150277A1, “Covalent PPARG inverse-agonists” (Bayer Aktiengesellschaft, priority 2022, published 2024)
Read-outs that look alike come from different tables or passages of the source.

How the values were obtained:
PPARG receptors = target: T1, PPARG receptors (Homo sapiens, UniProt P37231); experiment: RT-112-FABP4-NLuc Reporter Gene Assay (inverse agonism); assay type: cell-based; details: incubated over night; for IC50: 50 μM to 0.03 nM; for Emax: RT112/84, read-out: PPARG_RT-112_FABP4_NLuc_inverse agonist Efficacy - [%], bladder cancer cell line RT-112/84, NanoLuc in FABP4 3′ UTR
T1 construct: leading to PPARG dependent expression of the NanoLuc@ Luciferase; endogenous in cells
T1 sequence (P37231 1-505): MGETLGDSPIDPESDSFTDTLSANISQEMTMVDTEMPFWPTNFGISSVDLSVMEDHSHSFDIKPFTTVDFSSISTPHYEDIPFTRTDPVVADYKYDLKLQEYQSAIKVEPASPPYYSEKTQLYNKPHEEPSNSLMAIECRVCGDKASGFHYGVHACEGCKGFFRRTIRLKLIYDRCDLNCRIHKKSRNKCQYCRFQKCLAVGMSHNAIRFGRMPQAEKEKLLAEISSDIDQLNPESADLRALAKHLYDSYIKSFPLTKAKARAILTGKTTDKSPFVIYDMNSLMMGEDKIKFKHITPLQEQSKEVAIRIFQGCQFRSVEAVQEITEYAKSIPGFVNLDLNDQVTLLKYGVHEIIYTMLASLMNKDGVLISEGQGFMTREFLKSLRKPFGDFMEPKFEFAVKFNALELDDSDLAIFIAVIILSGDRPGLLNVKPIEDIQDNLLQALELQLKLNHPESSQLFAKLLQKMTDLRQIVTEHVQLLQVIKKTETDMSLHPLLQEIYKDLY
Procedure: Inverse agonists reduce the basal expression of the Luciferase resulting in a decrease of the Luciferase signal after addition of substrate and cell lysis. To exclude toxic effects of the compounds a parallel measurement of cell viability was performed based on the CellTiter Glo Assay (Promega).
On the next day 10 μl of test compounds dissolved in DMEM/F12 2% FBS and 0,01% BSA are placed in the wells of the microtiter plates. Final concentrations ranged from 50 μM to 0.03 nM. […] On the next day the NanoLuc Luciferase activity was measured by addition of 40 μl of NanoLuc substrate and lysis buffer (Promega, Madison, Wisconsin) diluted in 2 mM Ca-tyrode buffer (20 mM HEPES, 130 mM NaCl, 5 mM KCl, 5 mM NaHCO3, 2 mM MgCl2, pH 7,4). The resulting light signal was measured for 60 seconds in a luminometer. Every sample was tested in quadruples and mean values were used to calculate the IC50 values and efficacies of the compounds.

UMUC9 cells = experiment: Proliferation UMUC9 H2B-GFP assay (Incucyte); assay type: cell-based; details: 7 days of treatment; for Emax: UM-UC-9, 168 h; for IC50: Day 1 subtracted, percentage of DMSO control
Procedure: Proliferation UMUC9 H2B-GFP assay
Instrument: Incucyte® (Sartorius).
Description: Incucyte® Proliferation Assay measures cell proliferation based on nuclei count using live-cell time-lapse imaging. […] Measurements were performed on the day of treatment (Day 1 reading) and after 7 days of treatment (Day 8 reading). Green fluorescence in cell nuclei is measured using the instrument (Image Channels: Phase, Green; Acquisition time: 300 ms; Magnification: 4×).
Analysis: Selected metrics for analysis: Phase Object Confluence (Percent), Nuclei Count (1/Well) and Total Nuclei Area (μm^2/Well). Day 1 measurements were subtracted from each Day 8 measurement and expressed as percentage of the vehicle (DMSO) control. Percentage proliferation values were then plotted against compound concentration using GraphPad PRISM software. The Sigmoidal 4PL X is log (concentration) model of […] was used. Relative IC50 values and % efficacy (span) is reported below.

[1] = PPARG_RT-112_FABP4_NLuc_inverse agonist IC50 - [mol/l], bladder cancer cell line RT-112/84, NanoLuc in FABP4 3′ UTR
[2] = read-out: PPARG_RT-112_FABP4_NLuc_inverse agonist IC50 - [mol/l], bladder cancer cell line RT-112/84, NanoLuc in FABP4 3′ UTR

| Structure (SMILES) | IC50 (PPARG receptors; [1]) | Emax (PPARG receptors) | Emax (UMUC9 cells; % efficacy (span)) | IC50 (UMUC9 cells; UM-UC-9, relative IC50) | IC50 (PPARG receptors; [2]) | UM-UC-9 GFP proliferation Efficacy - [%] (UMUC9 cells; % efficacy (span)) | IC50 (UMUC9 cells; relative IC50, read-out: UM-UC-9 GFP proliferation IC50 -) | PPARG_RT-112_FABP4_NLuc_inverse agonist Efficacy - [%] (PPARG receptors; bladder cancer cell line RT-112/84, NanoLuc in FABP4 3′ UTR) |
| --- | --- | --- | --- | --- | --- | --- | --- | --- |
| Cc1cc(OC(F)F)ccc1NC(=O)c1cc(C(=O)NCc2ccccc2O)c(F)cc1Cl [Example 1, 4-chloro-N^3-[4-(difluoromethoxy)-2-methylphenyl]-6-fluoro-N′-[(2-hydroxyphenyl)methyl]benzene-1,3-dicarboxamide] | 3.8 nM | 83.5% | 51.4% | 2.89 nM | – | – | – | – |
| O=C(NCc1ccc(F)c(F)c1)c1cc(C(=O)Nc2ccccn2)c(Cl)cc1F [Example 34, 4-chloro-N^1-(3,4-difluorobenzyl)-6-fluoro-N^3-(pyridin-2-yl)isophthalamide] | – | 95% | 100% | – | 54.5 nM | – | – | – |
| COCCOCc1cc(F)ccc1CNC(=O)c1cc(C(=O)Nc2ccc(C(F)(F)F)cc2C)c(Cl)cc1F [Example 26, 4-chloro-6-fluoro-N^1-({4-fluoro-2-[(2-methoxyethoxy)methyl]phenyl}methyl)-N^3-[2-methyl-4-(trifluoromethyl)phenyl]benzene-1,3-dicarboxamide] | – | 94% | 73.4% | 27.5 nM | 7.35 nM | – | – | – |
| Cc1ccccc1CNC(=O)c1cc(Cl)c(Cl)c(C(=O)Nc2ccccc2)c1 [Example 17, 4,5-dichloro-N^1-[(2-methylphenyl)methyl]-N^3-phenylbenzene-1,3-dicarboxamide] | 1.3 nM | 71% | 28.3% | 1.52 nM | – | – | – | – |
| COc1ccccc1CNC(=O)c1cc(Cl)c(Cl)c(C(=O)Nc2ccc(N3CCOCC3)cn2)c1 [Example 38, 4,5-dichloro-N^1-(2-methoxybenzyl)-N^3-(5-morpholinopyridin-2-yl)isophthalamide] | 0.73 nM | 98.5% | 49.5% | 4.23 nM | – | – | – | – |
| COc1ccccc1CNC(=O)c1cc(Cl)c(Cl)c(C(=O)Nc2ccccc2)c1 [Example 15, 4,5-dichloro-N-[(2-methoxyphenyl)methyl]-N^3-phenylbenzene-_,3-dicarboxamide] | 0.52 nM | 70.7% | 60.6% | 7.96 nM | – | – | – | – |
| Cc1noc(-c2ccc(NC(=O)c3cc(C(=O)NCc4ccc(F)cc4)c(F)cc3Cl)cc2)n1 [Example 23, 4-chloro-6-fluoro-N^1-[(4-fluorophenyl)methyl]-N^3-[4-(3-methyl-1,2,4-oxadiazol-5-yl)phenyl]benzene-1,3-dicarboxamide] | 0.815 nM | 148% | 54% | 3.77 nM | – | – | – | – |
| O=C(NCc1ccc(F)c(F)c1)c1cc(C(=O)Nc2ccc(OC(F)F)cc2)c(Cl)cc1F [Example 3, 4-chloro-N^3-[4-(difluoromethoxy)phenyl]-N^1-[(3,4-difluorophenyl)methyl]-6-fluorobenzene-1,3-dicarboxamide] | 3.15 nM | 90.5% | – | > 6000 nM | – | – | – | – |
| O=C(NCc1ccc(F)c(F)c1)c1cc(Cl)c(Cl)c(C(=O)Nc2ccc(C(F)(F)F)cn2)c1 [Example 13, 4,5-dichloro-N′-[(3,4-difluorophenyl)methyl]-N^3-[5-(trifluoromethyl)pyridin-2-yl]benzene-1,3-dicarboxamide] | 0.4 nM | 77.5% | 77% | 4800 nM | – | – | – | – |
| O=C(NCc1ccccc1)c1cc(Cl)c(Cl)c(C(=O)Nc2ccc(OC(F)F)cc2)c1F [Example 31, N^1-benzyl-4,5-dichloro-N^3-[4-(difluoromethoxy)phenyl]-2-fluorobenzene-1,3-dicarboxamide] | 0.3 nM | 86.8% | – | > 6000 nM | – | – | – | – |
| Cc1cc(N2CCCC(O)C2)ccc1NC(=O)c1cc(C(=O)NCc2ccc(F)c(F)c2)c(F)cc1Cl (single isomer, unassigned) [Example 5, 4-chloro-N′-[(3,4-difluorophenyl)methyl]-6-fluoro-N^3-{4-[3-hydroxypiperidin-1-yl]-2-methylphenyl}benzene-1,3-dicarboxamide] | 1.27 nM | 116% | – | – | – | 78.67% | 5.38 nM | – |
| Cc1cc(C(F)(F)F)ccc1NC(=O)c1cc(C(=O)NC(CO)c2ccccc2)c(F)cc1Cl (single isomer, unassigned) [Example 30, 4-chloro-6-fluoro-N^1-[(1R*)-2-hydroxy-1-phenylethyl]-N^3-[2-methyl-4-(trifluoromethyl)phenyl]benzene-1,3-dicarboxamide] | 17.5 nM | – | 49.6% | 66.1 nM | – | – | – | 105.50% |
| O=C(NCc1ccc(F)c(F)c1)c1cc(C(=O)Nc2cnc(Oc3ccccc3)cn2)c(Cl)cc1F [Example 36, 4-chloro-N^1-(3,4-difluorobenzyl)-6-fluoro-N^3-(5-phenoxypyrazin-2-yl)isophthalamide] | 1.26 nM | 97.5% | 66% | 5.98 nM | – | – | – | – |
| O=C(NCc1ccccc1)c1cc(Cl)c(Cl)c(C(=O)Nc2ccc(C3COC3)cc2)c1F [Example 33, N^1-benzyl-4,5-dichloro-2-fluoro-N3-[4-(oxetan-3-yl)phenyl]benzene-1,3-dicarboxamide] | 1.05 nM | 94% | 59.8% | 4.91 nM | – | – | – | – |
| Cc1ccccc1NC(=O)c1cc(C(=O)NCc2ccccc2)cc(Cl)c1Br [Example 50, N^1-benzyl-4-bromo-5-chloro-N^3-(2-methylphenyl)benzene-1,3-dicarboxamide] | 0.45 nM | 108% | 50.8% | 5.06 nM | – | – | – | – |
| Cc1cc(OC(F)F)ccc1NC(=O)c1cc(C(=O)NCc2ccc(F)c(F)c2)cc(Cl)c1Cl [Example 7, 4,5-dichloro-N^3-[4-(difluoromethoxy)-2-methylphenyl]-N^1-[(3,4-difluorophenyl)methyl]benzene-1,3-dicarboxamide] | 1.4 nM | 102% | 64.9% | 9.09 nM | – | – | – | – |
| Cc1cc(N2CCCC(O)C2)ccc1NC(=O)c1cc(C(=O)NCc2ccc(F)c(F)c2)c(F)cc1Cl (centres unmarked) [Example 11, 4-chloro-N^1-[(3,4-difluorophenyl)methyl]-6-fluoro-N^3-{4-[3-hydroxypiperidin-1-yl]-2-methylphenyl}benzene-1,3-dicarboxamide] | 4.2 nM | 103% | 104% | 8.23 nM | – | – | – | – |
| Cc1c(F)c(C(=O)NCc2ccc(F)c(F)c2)cc(C(=O)Nc2ccc(OCC(C)(C)O)cn2)c1Cl [Example 52, 4-chloro-N^1-[(3,4-difluorophenyl)methyl]-6-fluoro-N^3-[5-(2-hydroxy-2-methylpropoxy)pyridin-2-yl]-5-methylbenzene-1,3-dicarboxamide] | 1.5 nM | 96% | 28.6% | 746 nM | – | – | – | – |
| Cc1cc(N2CCOCC2)cnc1NC(=O)c1cc(C(=O)NCc2ccc(F)c(F)c2)c(F)c(C)c1Cl [Example 18, 4-chloro-N^1-[(3,4-difluorophenyl)methyl]-6-fluoro-5-methyl-N^3-[3-methyl-5-(morpholin-4-yl)pyridin-2-yl]benzene-1,3-dicarboxamide] | 1.35 nM | 95% | 59.5% | 31 nM | – | – | – | – |
| Cc1cccc(-c2nc3cc(NC(=O)c4cc(C(=O)NCc5ccc(F)c(F)c5)c(F)cc4Cl)ccc3o2)c1 [Example 39, 4-chloro-N^1-(3,4-difluorobenzyl)-6-fluoro-N^3-(2-(m-tolyl)benzo[d]oxazol-5-yl)isophthalamide] | – | 95.5% | 88.7% | 34.2 nM | 6.55 nM | – | – | – |
